Laboratory results reported in US20040265836A1, “Methods for the identification of inhibitors of C4 Long Chain Base Hydroxylase activity in plants” (priority 2003, published 2004).

Legend:
[1] = system: yeast strain PGY31 (sur2 mutant expressing the truncated form of C4-LCBH); assay: Syringomycin E sensitivity growth assay, sur2 mutant expressing truncated Arabidopsis LCBH (PGY31); type: cell-based, Saccharomyces cerevisiae; details: PGY31 in rich medium supplemented with galactose; 5 μl of approximately 14-fold concentrated Syringomycin E-containing fraction dried in well of 384-well plate
Description: (§1) Syringomycin E is not a commercially available antibiotic and was, therefore, purified from the bacterium Pseudomonas syringae pv. syringae according to the method of (Bidwai & Zhang et al., 83 Plant Physiol 39-43 (1987)). Briefly, stationary-phase liquid cultures of P. syringae pv. syringae were extracted with acidified acetone and fractionated over an Amberlite XAD-2 (Sigma) column using a linear gradient of 0.1% trifluoroacetic acid/0.1% trifluoroacetic acid in 2-propanol. Each fraction was assayed for ability to inhibit growth of wild type (PGY8) and sur2 (PGY29) yeast strains. For the assay, 10 ml fractions were collected and 50 μl of each fraction was applied a 96-well plate and dried in a vacuum concentrator. […] of rich medium containing mid-logarithmic PGY8 or PGY29 at a cell density of 10^5 cells/ml were applied to each well. Growth was monitored after 18 hours by determining the absorbance at 600 nm. Syringomycin E-containing fractions were identified as those that inhibited growth of PGY8 but not of PGY29.
(§2) The ability of the amino-terminal truncated Arabidopsis LCBH to confer Syringomycin E sensitivity on the yeast sur2 mutant was determined as follows. […] 100 μl of yeast strains PGY8 and PGY29 in rich medium, or PGY31 in rich medium supplemented with galactose were added to each well and growth was monitored at 600 nm.

[2] = system: yeast strain PGY29 (sur2); assay: Syringomycin E sensitivity growth assay, sur2 mutant strain PGY29; type: cell-based, Saccharomyces cerevisiae; details: PGY29 in rich medium; 5 μl of approximately 14-fold concentrated Syringomycin E-containing fraction dried in well of 384-well plate
Description: as §1, §2

sur2 mutants = details: cited from earlier work
[3] = system: yeast strain PGY8 (wild type); assay: Syringomycin E sensitivity growth assay, wild type yeast strain PGY8; type: cell-based, Saccharomyces cerevisiae; details: PGY8 in rich medium; 5 μl of approximately 14-fold concentrated Syringomycin E-containing fraction dried in well of 384-well plate
Description: as §1, §2

Wild-type yeast strains = details: cited from earlier work

## Syringomycin E
[1]
  Growth in the presence of Syringomycin E (monitored at 600 nm): completely inhibited
[2]
  Growth in the presence of Syringomycin E (monitored at 600 nm): able to grow
sur2 mutants
  Growth in the presence of syringomycin E: able to grow
[3]
  Growth in the presence of Syringomycin E (monitored at 600 nm): completely inhibited
Wild-type yeast strains
  Sensitivity to syringomycin E: sensitive
